From ChEMBL document CHEMBL1201862, “PubChem BioAssay data set” (2004)
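Results reflect a 48-hour exposure of cells in 96-well plates to compound at five concentrations. GI50: concentration for 50% inhibition of growth.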 Active and inactive are the calls of the source. Cut-off read from the data, not from the text of the source: active = GI50 up to about 1.1 µM and inactive = higher.

Key:
Assay in all cases: NCI tumour cell line growth inhibition, 48 h
[1] = tested on: UACC-257
[2] = tested on: OVCAR-4
[3] = tested on: NCI-H460
[4] = tested on: ACHN
[5] = tested on: HOP-92
[6] = tested on: EKVX
[7] = tested on: RXF 393
[8] = tested on: T47D
[9] = tested on: SF-539
[10] = tested on: HCC 2998
[11] = tested on: MCF7
[12] = tested on: NCI-H522
[13] = tested on: DU-145
[14] = tested on: K562
[15] = tested on: A549
[16] = tested on: SK-OV-3
[17] = tested on: SNB-19
[18] = tested on: RPMI-8226
[19] = tested on: TK-10
[20] = tested on: IGROV-1
[21] = tested on: Hs-578T
[22] = tested on: UACC-62
[23] = tested on: SN12C
[24] = tested on: LOX IMVI
[25] = tested on: SK-MEL-28
[26] = tested on: KM12
[27] = tested on: OVCAR-8
[28] = tested on: SK-MEL-2
[29] = tested on: SF-268
[30] = tested on: MOLT-4
[31] = tested on: OVCAR-5
[32] = tested on: HCT-116
[33] = tested on: A498
[34] = tested on: 786-0
[35] = tested on: NCI-H23
[36] = tested on: Malme-3M
[37] = tested on: COLO 205
[38] = tested on: HOP-62
[39] = tested on: SK-MEL-5
[40] = tested on: HT-29
[41] = tested on: HCT-15
[42] = tested on: SF-295
[43] = tested on: SR
[44] = tested on: MDA-MB-435
[45] = tested on: M14
[46] = tested on: NCI-H226
[47] = tested on: BT-549
[48] = tested on: HL-60
[49] = tested on: OVCAR-3
[50] = tested on: SNB-75
[51] = tested on: SW-620
[52] = tested on: U-251
[53] = tested on: PC-3
[54] = tested on: MDA-N
[55] = tested on: NCI/ADR-RES
[56] = tested on: UO-31
[57] = tested on: CCRF-CEM
[58] = tested on: CAKI-1

For `COc1cc(CC2CCc3nc(N)nc(N)c3C2)cc(OC)c1OC` (configuration not stated), the GI50 [1] was 24800 nM (inactive), the GI50 [2] was > 45600 nM (inactive) and the GI50 [3] was 57.1 nM (active). For the same compound, the GI50 [4] was 163 nM (active), the GI50 [5] was 26500 nM (inactive) and the GI50 [6] was 701 nM (active). For the same compound, the GI50 [7] was 42.2 nM (active), the GI50 [8] was 21600 nM (inactive) and the GI50 [9] was 966 nM (active). The GI50 [10] was 621 nM (active), the GI50 [11] was 527 nM (active) and the GI50 [12] was 505 nM (active). The GI50 [13] was 1790 nM (inactive), the GI50 [14] was 5300 nM (inactive) and the GI50 [15] was 92.7 nM (active). For the same compound, the GI50 [16] was 27600 nM (inactive), the GI50 [17] was > 22900 nM (inactive) and the GI50 [18] was 5830 nM (inactive). The GI50 [19] was > 45700 nM (inactive), the GI50 [20] was 131 nM (active) and the GI50 [21] was > 60500 nM (inactive). For the same compound, the GI50 [22] was 145 nM (active), the GI50 [23] was 31100 nM (inactive) and the GI50 [24] was 79.8 nM (active). The GI50 [25] was > 36500 nM (inactive), the GI50 [26] was 1180 nM (inactive) and the GI50 [27] was > 32700 nM (inactive). The GI50 [28] was > 38100 nM (inactive), the GI50 [29] was 174 nM (active) and the GI50 [30] was 1010 nM (active). The GI50 [31] was 1360 nM (inactive), the GI50 [32] was 45.7 nM (active) and the GI50 [33] was 20700 nM (inactive). The GI50 [34] was 53.6 nM (active), the GI50 [35] was 698 nM (active) and the GI50 [36] was 851 nM (active). For the same compound, the GI50 [37] was 1600 nM (inactive), the GI50 [38] was 2050 nM (inactive) and the GI50 [39] was 83.4 nM (active). The GI50 [40] was > 34800 nM (inactive), the GI50 [41] was 92.5 nM and the GI50 [42] was 210 nM (active). For the same compound, the GI50 [43] was 236 nM (active), the GI50 [44] was 4240 nM (inactive) and the GI50 [45] was 195 nM (active). For the same compound, the GI50 [46] was > 24300 nM (inactive), the GI50 [47] was 9550 nM (inactive) and the GI50 [48] was 100 nM (active). The GI50 [49] was 8850 nM (inactive), the GI50 [50] was 1550 nM (inactive) and the GI50 [51] was 914 nM (active). For the same compound, the GI50 [52] was > 35200 nM (inactive) and the GI50 [53] was 130 nM (active).

In the case of `COc1cc([C@@H]2c3cc4c(cc3[C@@H](NCCNCCO)[C@H]3COC(=O)[C@H]23)OCO4)cc(OC)c1O`, the GI50 [1] is reported as 7850 nM (inactive), the GI50 [54] is reported as 4350 nM (inactive) and the GI50 [2] is reported as 18700 nM (inactive). For the same compound, the GI50 [3] was 52.5 nM (active), the GI50 [55] was > 100000 nM (inactive) and the GI50 [7] was 1530 nM (inactive). The GI50 [8] was 442 nM (active), the GI50 [14] was 1710 nM (inactive) and the GI50 [56] was 11600 nM (inactive). For the same compound, the GI50 [15] was 785 nM (active), the GI50 [16] was 1780 nM (inactive) and the GI50 [17] was 857 nM (active). For the same compound, the GI50 [19] was 6590 nM (inactive), the GI50 [20] was 1050 nM (active) and the GI50 [21] was 1890 nM (inactive). The GI50 [22] was 644 nM (active), the GI50 [25] was 2140 nM (inactive) and the GI50 [26] was 2550 nM (inactive). For the same compound, the GI50 [27] was 2090 nM (inactive), the GI50 [28] was 2150 nM (inactive) and the GI50 [57] was 43.2 nM (active). The GI50 [30] was 16 nM (active), the GI50 [32] was 2400 nM (inactive) and the GI50 [34] was 1090 nM (active). The GI50 [35] was 1240 nM (inactive), the GI50 [37] was 2380 nM (inactive) and the GI50 [38] was 1500 nM (inactive). The GI50 [39] was 1150 nM (inactive), the GI50 [40] was 2860 nM (inactive) and the GI50 [41] was 29500 nM. For the same compound, the GI50 [44] was 6220 nM (inactive), the GI50 [45] was 3790 nM (inactive) and the GI50 [46] was 1120 nM (inactive). The GI50 [58] was 3780 nM (inactive), the GI50 [47] was 1920 nM (inactive) and the GI50 [50] was 1100 nM (active). The GI50 [51] was 2440 nM (inactive), the GI50 [52] was 501 nM (active) and the GI50 [53] was 2670 nM (inactive).
